Values of other authors as cited in publication PMC5580352 (Journal of medicinal chemistry, 2017).

Details: 1 week of administration of 20 mg/kg

CCCC[S+]([O-])c1sc2nc(-c3cccs3)cc(-c3ccccc3)c2c1N (stereo not shown) [Compound 1, 2-(butylsulfinyl)-4-phenyl-6-(thiophen-2-yl)thieno[2,3-b]pyridin-3-amine]
adverse effects: no adverse effects on weight, activity, blood counts or blood chemistry
